Results on 2 compounds are retold here after patent US20220324897A1, “CRYSTAL FORM OF SGLT INHIBITOR AND APPLICATION THEREOF” (SHANDONG DANHONG PHARMACEUTICAL CO., LTD., priority 2019, published 2022).

The nature of data set [1]: Solid stability test of crystal form A. It is filed as physicochemical. The protocol:
Each part is placed at the bottom of a HPLC vial and spread into a thin layer. Samples placed in a constant temperature and constant humidity box at 60° C./75% RH and samples placed in a 92.5% RH dryer are sealed with a sealing film on the bottle mouth, and some small holes are made in the sealing film to ensure that the sample can be brought into full contact with the ambient air. Samples placed at 60° C., or under lights or shading conditions are tightly capped (wherein the samples under shading conditions are packaged with a tin foil paper).

In the next data set the test system is SD rats. In words: Pharmacodynamic study in rats OGTT model. It counts as in vivo, rat. To be noted: for OGTT Blood glucose levels AUC0-2 hr: SD rats, mean ± standard error. The protocol:
SD rats, male, aged 7-8 weeks, purchased from Zhejiang Weitonglihua Experimental Animal Technology Co. Ltd. are maintained in a special pathogen-free environment, with 4 rats in a single ventilation cage. Beddings and water in all cages are sterilized prior to use. All animals can freely obtain a standard certified commercial laboratory diet.
After the animals are adapted to the environment for one week, they are fasted for 16 hours in a metabolic cage, and randomly divided into different groups according to fasting blood glucose and body weight. The animals are administered with a drug or solvent (2 mL/kg), followed by immediately administration of 50% glucose solution (2 g/kg, 4 mL/kg), 2 hours after the administration of glucose solution, the feed is recovered, and blood samples are collected at 0 min, 15 min, 30 min, 45 min, 60 min, and 120 min for blood glucose testing. All values are expressed as average values. Statistical analysis is carried out using Graphpad Prism 6 double factor variance analysis and evaluated with Tukey's multiple comparison tests. P values less than 0.05 are considered to have statistical significance.

Data set [2] can be described thus: Hygroscopicity study by dynamic vapor sorption (DVS). It is filed as physicochemical. Conditions: 25° C. and 80% RH. On the procedure: Dynamic Vapor Sorption (DVS) Method of the Present Invention
Instrument Model: […] Advantage-1 dynamic vapor adsorber
Test conditions: Sample (10-30 mg) is placed in the DVS sample tray for testing.
Detailed DVS parameters are as follows:
Balance: dm/dt=0.002%/min (shortest: 10 min, longest: 180 min)
RH (%) test step range: 0-95-0
Hygroscopicity evaluation and classification are as follows:
SMS DVS Advantage Dynamic Vapor Sorption Intrinsic

The mark [3] stands for this setting: Shading lights, test at the same time with the visible lights + ultraviolet lights group.
[4] abbreviates: Shading lights, test at the same time with the visible lights group.
The mark [5] stands for this setting: Visible lights + Ultraviolet lights, illuminance reaches 200 W · hrs/m^2.
The mark [6] stands for this setting: Visible lights, illuminance reaches 1.2E+06 Lux · hrs.

As to `CCc1ccc([C@@H]2O[C@H](SC)[C@@H](O)[C@H](O)[C@H]2O)cc1Cc1ccc(C2=CCC(F)(F)CC2)cc1`, the Crystal form result in data set [1] (0 day) was “Crystal form A”; in data set [1] (60° C., 5 days), “Crystal form A”; in data set [1] (60° C., 10 days), “Crystal form A”; in data set [1] (60° C./75% RH, 1 months), “Crystal form A”; in data set [1] (60° C./75% RH, 2 months), “Crystal form A”; in data set [1] (60° C./75% RH, 3 months), “Crystal form A”. Further, the Crystal form result in data set [1] (92.5% RH, 5 days) is reported as “Crystal form A”; in data set [1] (92.5% RH, 10 days), “Crystal form A”; in data set [1] (setting [3]) it was “Crystal form A”; in data set [1] (setting [4]) it was “Crystal form A”; in data set [1] (setting [5]), “Crystal form A”; in data set [1] (setting [6]) it was “Crystal form A”. The “Purity (area %)” value in data set [1] (0 day) was determined as 96.48 area %; in data set [1] (60° C., 5 days), 96.38 area %; in data set [1] (60° C., 10 days), 96.41 area %; in data set [1] (60° C./75% RH, 1 months) it was 96.31 area %; in data set [1] (60° C./75% RH, 2 months), 96.39 area %; in data set [1] (60° C./75% RH, 3 months), 96.37 area %. Besides, the “Purity (area %)” value worked out at 96.41 area % in data set [1] (92.5% RH, 5 days); 96.47 area % in data set [1] (92.5% RH, 10 days); 96.43 area % in data set [1] (setting [3]); 96.44 area % in data set [1] (setting [4]); 95.75 area % in data set [1] (setting [5]); 96.29 area % in data set [1] (setting [6]). Moreover, the “Solid stability, conclusion” value in data set [1] (all tested conditions of Table 3) is given as “Conclusion: The crystal forms A of compound of formula (I) has good stability”. Further, the OGTT Blood glucose levels AUC0-2 hr with SD rats (1 mg/kg) amounted to 1070 mmol/L/min; with SD rats (3 mg/kg) it was 977 mmol/L/min; in the data set with SD rats (10 mg/kg), 881 mmol/L/min. Also, the “Effect on blood glucose level, AUC0-2hr, conclusion” value in the data set with SD rats (rat OGTT, in 2 hours) is “effectively and significantly reduce the blood glucose level”. Moreover, the Hygroscopicity classification entry in data set [2] is listed as “almost no hygroscopicity”. In addition, in data set [2], the “ΔW, weight gain caused by hygroscopicity” value was determined as 0.1483%.
For the compound `CCOc1ccc(Cc2cc([C@@H]3O[C@H](SC)[C@@H](O)[C@H](O)[C@H]3O)ccc2Cl)cc1` [Sotagliflozin, reference compound], in the data set on SD rats (3 mg/kg), the OGTT Blood glucose levels AUC0-2 hr was 1050 mmol/L/min.
